The numbers were not newly measured in PMC10014483 (Bioorganic & Medicinal Chemistry Letters, 2023), which cites them from elsewhere.

The conditions of series [1]: mice.
The next series deals with SARS-CoV-2. The conditions noted are these: transgenic mouse model of SARS-CoV-2 infection, orally effective.

In the case of `CC(C)(C)[C@H](NC(=O)C(F)(F)F)C(=O)N1C[C@H]2[C@@H]([C@H]1C(=O)N[C@H](C#N)C[C@@H]1CCNC1=O)C2(C)C` [Nirmatrelvir], the oral bioavailability entry is “unsatisfied” and the plasma half-life entry was “short”.

Consider `CC(C)(C)OC(=O)Nc1cccn([C@@H](CC2CC2)C(=O)N[C@@H](C[C@@H]2CCNC2=O)C(=O)C(=O)NCc2ccccc2)c1=O` [Compound 13b], for which the toxicity entry in series [1] was “low toxicity”.

Turning to `CC1(C)[C@@H]2[C@@H](C(=O)N[C@H](C=O)C[C@@H]3CCNC3=O)N(C(=O)COc3ccc(OC(F)(F)F)cc3)C[C@@H]21` [MI-09], in the series with SARS-CoV-2, the “viral load in the lungs and lung lesions” value is “significantly reduced”.
